Laboratory results taken from US20020137929A1, “1 - (3-heterocyclylphenyl) isothiourea, -isourea, -guanidine and -amidine herbicidal agents” (Intellectual Property Department, BASF Aktiengesellschaft, priority 1998, published 2002).

Assays:
GALAP (Galium) [1] = assay: Postemergence herbicidal evaluation; type: in vivo, Galium aparine; details: postemergence
Method in brief: (§1)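 First, seedlings were raised for around two weeks. Next, test material in 50/50 acetone/water containing 0.5% TWEEN 20 was sprayed through a nozzle at 40 psi, equivalent to about 0.0156–0.500 kg/ha. Finally, after 4–5 weeks in the greenhouse, plants were rated 0–9.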

AMBEL (Ragweed, Common) = assay: Postemergence herbicidal evaluation; type: in vivo, Ambrosia artemisifolia; details: postemergence
Method in brief: as §1

[2] = tested on: SAGPY (Arrowhead (Pygmaea)); assay: Preemergence weed control under flooded paddy conditions; type: in vivo, Sagittaria pygmaea; details: rated 3-4 weeks after treatment
Method in brief: (§2)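 Using flooded silt loam (water 1.5 to 3 cm deep), seeds sown in the top 0.5 cm were exposed preemergence to compound pipetted into the flood at about 0.0313 to 0.500 kg/ha. Effects were scored 0-9 by eye three to four weeks later.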

ORYSAT (Rice, Tebonnet) = assay: Preemergence herbicidal evaluation; type: in vivo, Oryza sativa, (L.) Tebonnet; details: rated 4-5 weeks after treatment, rating scale 0-9
Method in brief: (§3)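 Scores (0–9) reflect visual comparison with control plants for stand, vigor, malformation, size and chlorosis. Compound was applied to the soil after sowing, before emergence, as an aqueous acetone spray (about 0.0156–0.500 kg/ha), and cups were kept in a greenhouse for 4–5 weeks.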

[3] = tested on: GLXMAW (Soybean, Williams); assay: Postemergence herbicidal evaluation; type: in vivo, Glycine max, (L.) Merr. cv Williams; details: postemergence
Method in brief: as §1

SETVI (Foxtail, Green) = assay: Preemergence herbicidal evaluation; type: in vivo, Setaria viridis; details: rated 4-5 weeks after treatment, rating scale 0-9
Method in brief: as §3

MOOVA (Monochoria) = assay: Preemergence weed control under flooded paddy conditions; type: in vivo, Monochoria vaginalis; details: rated 3-4 weeks after treatment
Method in brief: as §2

CASOB (Sicklepod) = assay: Postemergence herbicidal evaluation; type: in vivo, Cassia obtusifolia; details: postemergence
Method in brief: as §1

GALAP (Galium) [4] = assay: Preemergence herbicidal evaluation; type: in vivo, Galium aparine; details: rated 4-5 weeks after treatment, rating scale 0-9
Method in brief: as §3

CYPSE (Flatsedge) = assay: Preemergence weed control under flooded paddy conditions; type: in vivo, Cyperus serotinus; details: rated 3-4 weeks after treatment
Method in brief: as §2

[5] = tested on: TRZAWR (Wheat, Winter, cv Riband); assay: Postemergence herbicidal evaluation; type: in vivo, Triticum aestivum; details: postemergence
Method in brief: as §1

[6] = tested on: ECHORC (Watergrass (Calif.)); assay: Preemergence weed control under flooded paddy conditions; type: in vivo, Echinochloa oryzoides; details: rated 3-4 weeks after treatment
Method in brief: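 Flooded-pot preemergence screen with silt loam and seeds in the upper 0.5 cm. Dose about 0.0313 to 0.500 kg/ha, delivered into flood water; visual 0-9 score after 3 to 4 weeks.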

CCOC(=O)CN1C(=O)C(Br)SC1=Nc1cc(-n2c(=O)cc(C(F)(F)F)n(C)c2=O)c(F)cc1Cl (stereo not shown) [Compound 153, Ethyl 5-bromo-2-[{2-chloro-5-[3,6-dihydro-3-methyl-2,6-dioxo-4-(trifluoromethyl)-1(2H)-pyrimidinyl]-4-fluorophenyl}imino}-4-oxo-3-thiazolidineacetate]
Herbicidal rating GALAP (GALAP (Galium) [1]; rate 0.0156 kg/ha): 0.0 | Herbicidal rating GALAP (GALAP (Galium) [1]; rate 0.0313 kg/ha): 0.0 | Herbicidal rating GALAP (GALAP (Galium) [1]; rate 0.0625 kg/ha): 0.0 | Herbicidal rating AMBEL (AMBEL (Ragweed, Common); rate 0.0156 kg/ha): 0.0 | Herbicidal rating AMBEL (AMBEL (Ragweed, Common); rate 0.0313 kg/ha): 1.0 | Herbicidal rating AMBEL (AMBEL (Ragweed, Common); rate 0.0625 kg/ha): 1.0 | herbicidal effect rating, SAGPY ([2]; 0.0625 kg/ha): 0.0 | herbicidal effect rating, SAGPY ([2]; 0.1250 kg/ha): 0.0 | herbicidal effect rating, SAGPY ([2]; 0.2500 kg/ha): 0.0 | Preemergence herbicidal rating ORYSAT (ORYSAT (Rice, Tebonnet); rate 0.1250 kg/ha): 0.0 | Preemergence herbicidal rating ORYSAT (ORYSAT (Rice, Tebonnet); rate 0.2500 kg/ha): 0.0 | Herbicidal rating GLXMAW ([3]; rate 0.0156 kg/ha): 3.5 | Herbicidal rating GLXMAW ([3]; rate 0.0313 kg/ha): 4.0 | Herbicidal rating GLXMAW ([3]; rate 0.0625 kg/ha): 4.0 | Preemergence herbicidal rating SETVI (SETVI (Foxtail, Green); rate 0.1250 kg/ha): 1.0 | Preemergence herbicidal rating SETVI (SETVI (Foxtail, Green); rate 0.2500 kg/ha): 0.0 | herbicidal effect rating, MOOVA (MOOVA (Monochoria); 0.0625 kg/ha): 3.0 | herbicidal effect rating, MOOVA (MOOVA (Monochoria); 0.1250 kg/ha): 4.0 | herbicidal effect rating, MOOVA (MOOVA (Monochoria); 0.2500 kg/ha): 5.0 | Herbicidal rating CASOB (CASOB (Sicklepod); rate 0.0156 kg/ha): 0.0 | Herbicidal rating CASOB (CASOB (Sicklepod); rate 0.0313 kg/ha): 0.0 | Herbicidal rating CASOB (CASOB (Sicklepod); rate 0.0625 kg/ha): 1.0 | Preemergence herbicidal rating GALAP (GALAP (Galium) [4]; rate 0.1250 kg/ha): 0.0 | Preemergence herbicidal rating GALAP (GALAP (Galium) [4]; rate 0.2500 kg/ha): 1.0 | herbicidal effect rating, CYPSE (CYPSE (Flatsedge); 0.0625 kg/ha): 0.0 | herbicidal effect rating, CYPSE (CYPSE (Flatsedge); 0.1250 kg/ha): 0.0 | herbicidal effect rating, CYPSE (CYPSE (Flatsedge); 0.2500 kg/ha): 0.0 | Herbicidal rating TRZAWR ([5]; rate 0.0156 kg/ha): 2.0 | Herbicidal rating TRZAWR ([5]; rate 0.0313 kg/ha): 2.0 | Herbicidal rating TRZAWR ([5]; rate 0.0625 kg/ha): 3.0 | herbicidal effect rating, ECHORC ([6]; 0.0625 kg/ha): 0.0 | herbicidal effect rating, ECHORC ([6]; 0.1250 kg/ha): 0.0 | herbicidal effect rating, ECHORC ([6]; 0.2500 kg/ha): 0.0

C=C1SC(=Nc2cc(-n3c(=O)cc(C(F)(F)F)n(C)c3=O)c(F)cc2Cl)N(CC(=O)OCC)C1=O [Compound 154]
Herbicidal rating GALAP (GALAP (Galium) [1]; rate 0.0156 kg/ha): 3.0 | Herbicidal rating GALAP (GALAP (Galium) [1]; rate 0.0313 kg/ha): 3.0 | Herbicidal rating GALAP (GALAP (Galium) [1]; rate 0.0625 kg/ha): 4.0 | Herbicidal rating AMBEL (AMBEL (Ragweed, Common); rate 0.0156 kg/ha): 3.0 | Herbicidal rating AMBEL (AMBEL (Ragweed, Common); rate 0.0313 kg/ha): 9.0 | Herbicidal rating AMBEL (AMBEL (Ragweed, Common); rate 0.0625 kg/ha): 9.0 | herbicidal effect rating, SAGPY ([2]; 0.0313 kg/ha): 2.0 | herbicidal effect rating, SAGPY ([2]; 0.0625 kg/ha): 4.0 | herbicidal effect rating, SAGPY ([2]; 0.1250 kg/ha): 5.0 | herbicidal effect rating, SAGPY ([2]; 0.2500 kg/ha): 6.0 | Preemergence herbicidal rating ORYSAT (ORYSAT (Rice, Tebonnet); rate 0.0156 kg/ha): 3.0 | Preemergence herbicidal rating ORYSAT (ORYSAT (Rice, Tebonnet); rate 0.0313 kg/ha): 4.0 | Preemergence herbicidal rating ORYSAT (ORYSAT (Rice, Tebonnet); rate 0.0625 kg/ha): 8.0 | Preemergence herbicidal rating ORYSAT (ORYSAT (Rice, Tebonnet); rate 0.1250 kg/ha): 9.0 | Preemergence herbicidal rating ORYSAT (ORYSAT (Rice, Tebonnet); rate 0.2500 kg/ha): 9.0 | Herbicidal rating GLXMAW ([3]; rate 0.0156 kg/ha): 5.5 | Herbicidal rating GLXMAW ([3]; rate 0.0313 kg/ha): 6.0 | Herbicidal rating GLXMAW ([3]; rate 0.0625 kg/ha): 7.5 | Preemergence herbicidal rating SETVI (SETVI (Foxtail, Green); rate 0.0156 kg/ha): 2.0 | Preemergence herbicidal rating SETVI (SETVI (Foxtail, Green); rate 0.0313 kg/ha): 7.0 | Preemergence herbicidal rating SETVI (SETVI (Foxtail, Green); rate 0.0625 kg/ha): 9.0 | Preemergence herbicidal rating SETVI (SETVI (Foxtail, Green); rate 0.1250 kg/ha): 9.0 | Preemergence herbicidal rating SETVI (SETVI (Foxtail, Green); rate 0.2500 kg/ha): 9.0 | herbicidal effect rating, MOOVA (MOOVA (Monochoria); 0.0313 kg/ha): 6.0 | herbicidal effect rating, MOOVA (MOOVA (Monochoria); 0.0625 kg/ha): 7.0 | herbicidal effect rating, MOOVA (MOOVA (Monochoria); 0.1250 kg/ha): 8.0 | herbicidal effect rating, MOOVA (MOOVA (Monochoria); 0.2500 kg/ha): 9.0 | Herbicidal rating CASOB (CASOB (Sicklepod); rate 0.0156 kg/ha): 0.0 | Herbicidal rating CASOB (CASOB (Sicklepod); rate 0.0313 kg/ha): 0.0 | Herbicidal rating CASOB (CASOB (Sicklepod); rate 0.0625 kg/ha): 1.0 | Preemergence herbicidal rating GALAP (GALAP (Galium) [4]; rate 0.0156 kg/ha): 0.0 | Preemergence herbicidal rating GALAP (GALAP (Galium) [4]; rate 0.0313 kg/ha): 0.0 | Preemergence herbicidal rating GALAP (GALAP (Galium) [4]; rate 0.0625 kg/ha): 4.0 | Preemergence herbicidal rating GALAP (GALAP (Galium) [4]; rate 0.1250 kg/ha): 9.0 | Preemergence herbicidal rating GALAP (GALAP (Galium) [4]; rate 0.2500 kg/ha): 9.0 | herbicidal effect rating, CYPSE (CYPSE (Flatsedge); 0.0313 kg/ha): 4.0 | herbicidal effect rating, CYPSE (CYPSE (Flatsedge); 0.0625 kg/ha): 6.0 | herbicidal effect rating, CYPSE (CYPSE (Flatsedge); 0.1250 kg/ha): 9.0 | herbicidal effect rating, CYPSE (CYPSE (Flatsedge); 0.2500 kg/ha): 9.0 | Herbicidal rating TRZAWR ([5]; rate 0.0156 kg/ha): 3.5 | Herbicidal rating TRZAWR ([5]; rate 0.0313 kg/ha): 3.5 | Herbicidal rating TRZAWR ([5]; rate 0.0625 kg/ha): 4.0 | herbicidal effect rating, ECHORC ([6]; 0.0313 kg/ha): 3.0 | herbicidal effect rating, ECHORC ([6]; 0.0625 kg/ha): 4.0 | herbicidal effect rating, ECHORC ([6]; 0.1250 kg/ha): 7.0 | herbicidal effect rating, ECHORC ([6]; 0.2500 kg/ha): 7.0
